The record followed here is ChEMBL document CHEMBL1909046, “DrugMatrix in vitro pharmacology data”.

Assay [1] concerns the target T1, Alpha-1D adrenergic receptor (Homo sapiens, UniProt P25100). Note: in other assays of this panel Not Active means under 50% inhibition at 10 µM.
T1 sequence (P25100 whole entry): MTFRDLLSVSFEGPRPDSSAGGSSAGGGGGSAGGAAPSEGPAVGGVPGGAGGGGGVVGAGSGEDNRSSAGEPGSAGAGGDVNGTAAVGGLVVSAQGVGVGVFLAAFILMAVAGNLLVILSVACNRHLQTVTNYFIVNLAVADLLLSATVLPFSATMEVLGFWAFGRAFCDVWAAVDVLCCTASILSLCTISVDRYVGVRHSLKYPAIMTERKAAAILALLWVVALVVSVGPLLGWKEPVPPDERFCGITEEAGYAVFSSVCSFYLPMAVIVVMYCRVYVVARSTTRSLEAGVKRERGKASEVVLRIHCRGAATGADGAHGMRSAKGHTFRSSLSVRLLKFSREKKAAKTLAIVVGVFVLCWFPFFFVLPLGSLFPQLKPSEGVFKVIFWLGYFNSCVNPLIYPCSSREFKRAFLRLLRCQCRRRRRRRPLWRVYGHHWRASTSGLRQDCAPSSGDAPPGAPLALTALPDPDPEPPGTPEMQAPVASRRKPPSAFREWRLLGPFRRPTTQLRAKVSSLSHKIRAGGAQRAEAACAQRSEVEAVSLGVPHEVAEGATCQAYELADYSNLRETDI
In kind it is cell membranes, HEK293, Membrane. The following applies: for Ki: read-out: Ki.

In assay [2] the target is Sodium-dependent dopamine transporter (Homo sapiens, UniProt Q01959). As to the kind of experiment: DRUGMATRIX: Dopamine Transporter radioligand binding (ligand: [125I] RTI-55). In kind it is cell membranes, CHO-K1, Membrane. Conditions: Not Active = under 50% inhibition at 10 µM; for Ki: read-out: Ki.
Assay [3] can be described thus: DRUGMATRIX: GABAA, Chloride Channel, TBOB radioligand binding (ligand: [3H] TBOB). In kind it is cell membranes, Rattus norvegicus, Wistar, Cerebral cortex, Membrane. Conditions: Not Active = under 50% inhibition at 10 µM.
Assay [4] can be described thus: DRUGMATRIX: Glutamate, NMDA, Agonism radioligand binding (ligand: [3H] CGP-39653). Conditions: Not Active = under 50% inhibition at 10 µM. It is filed as cell membranes, Rattus norvegicus, Wistar, Cerebral cortex, Membrane.
The target in the next assay is Histamine H2 receptor (Homo sapiens, UniProt P25021). In kind it is cell membranes, CHO-K1, Membrane. Conditions: for Ki: read-out: Ki. For all read-outs here: in other assays of this panel Not Active means under 50% inhibition at 10 µM.
Assay [5] concerns the target T2, Nitric oxide synthase, inducible (Mus musculus, UniProt P29477).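 Note: inhibition of iNOS enzyme activity measured with L-arginine as substrate; in other assays of this panel Not Active means under 50% inhibition at 10 µM.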
T2 sequence (P29477 whole entry): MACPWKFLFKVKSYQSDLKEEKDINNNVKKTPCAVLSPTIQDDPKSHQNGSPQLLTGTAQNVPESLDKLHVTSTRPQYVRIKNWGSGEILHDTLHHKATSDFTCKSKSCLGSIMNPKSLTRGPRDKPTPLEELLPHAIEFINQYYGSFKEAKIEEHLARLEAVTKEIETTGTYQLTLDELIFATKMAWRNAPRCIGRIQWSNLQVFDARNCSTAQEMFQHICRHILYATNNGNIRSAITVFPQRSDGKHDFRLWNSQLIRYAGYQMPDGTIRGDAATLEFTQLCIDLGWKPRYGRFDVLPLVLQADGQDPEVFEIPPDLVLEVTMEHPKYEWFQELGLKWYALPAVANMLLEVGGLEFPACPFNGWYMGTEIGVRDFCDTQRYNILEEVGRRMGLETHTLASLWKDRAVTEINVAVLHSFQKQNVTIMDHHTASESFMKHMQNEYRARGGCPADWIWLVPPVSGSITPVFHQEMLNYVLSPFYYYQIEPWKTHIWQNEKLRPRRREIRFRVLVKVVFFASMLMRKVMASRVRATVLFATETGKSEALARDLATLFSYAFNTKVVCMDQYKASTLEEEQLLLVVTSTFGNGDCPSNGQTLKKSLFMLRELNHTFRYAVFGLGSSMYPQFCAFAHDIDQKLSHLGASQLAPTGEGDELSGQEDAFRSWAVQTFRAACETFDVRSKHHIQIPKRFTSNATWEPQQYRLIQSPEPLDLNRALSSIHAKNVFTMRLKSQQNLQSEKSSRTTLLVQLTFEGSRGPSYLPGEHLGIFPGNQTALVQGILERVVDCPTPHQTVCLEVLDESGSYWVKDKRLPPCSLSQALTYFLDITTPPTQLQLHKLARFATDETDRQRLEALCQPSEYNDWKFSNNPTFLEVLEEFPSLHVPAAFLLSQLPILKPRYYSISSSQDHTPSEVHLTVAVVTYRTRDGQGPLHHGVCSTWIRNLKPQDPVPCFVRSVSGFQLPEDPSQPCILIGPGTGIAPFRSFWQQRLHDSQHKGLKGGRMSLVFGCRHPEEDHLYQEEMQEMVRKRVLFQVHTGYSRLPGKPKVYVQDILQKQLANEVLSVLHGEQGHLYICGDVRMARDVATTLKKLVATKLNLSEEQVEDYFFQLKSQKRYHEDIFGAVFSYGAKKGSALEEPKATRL
Further details: species or system Escherichia coli.

Histamine H2 receptor, sequence (P25021 whole entry): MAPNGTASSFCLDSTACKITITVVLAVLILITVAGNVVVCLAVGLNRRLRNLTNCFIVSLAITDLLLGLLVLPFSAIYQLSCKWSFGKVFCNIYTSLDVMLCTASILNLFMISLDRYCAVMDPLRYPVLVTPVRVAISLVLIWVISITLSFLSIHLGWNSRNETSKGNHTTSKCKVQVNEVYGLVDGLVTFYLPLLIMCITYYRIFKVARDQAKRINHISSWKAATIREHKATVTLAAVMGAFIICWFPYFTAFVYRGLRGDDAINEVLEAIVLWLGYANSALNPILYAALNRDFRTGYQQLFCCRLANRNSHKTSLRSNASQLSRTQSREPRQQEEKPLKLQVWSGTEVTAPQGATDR
Sodium-dependent dopamine transporter, sequence (Q01959 whole entry): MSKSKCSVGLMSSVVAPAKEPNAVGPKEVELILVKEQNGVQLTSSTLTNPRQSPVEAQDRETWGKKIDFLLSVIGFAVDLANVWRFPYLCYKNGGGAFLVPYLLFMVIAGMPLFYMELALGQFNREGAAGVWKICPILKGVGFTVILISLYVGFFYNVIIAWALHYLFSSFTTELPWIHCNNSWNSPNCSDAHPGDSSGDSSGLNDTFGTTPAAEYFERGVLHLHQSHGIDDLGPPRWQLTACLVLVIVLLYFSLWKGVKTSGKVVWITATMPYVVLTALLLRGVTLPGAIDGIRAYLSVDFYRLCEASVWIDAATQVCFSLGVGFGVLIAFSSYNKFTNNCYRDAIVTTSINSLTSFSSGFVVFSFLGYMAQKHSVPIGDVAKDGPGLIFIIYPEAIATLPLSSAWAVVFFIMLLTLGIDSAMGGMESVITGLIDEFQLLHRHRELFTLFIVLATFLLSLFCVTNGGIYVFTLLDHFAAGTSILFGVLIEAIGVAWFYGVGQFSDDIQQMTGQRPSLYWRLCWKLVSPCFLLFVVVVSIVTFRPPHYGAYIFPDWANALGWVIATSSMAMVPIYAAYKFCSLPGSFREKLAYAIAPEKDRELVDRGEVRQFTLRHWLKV

For `CCO` [ALCOHOL], the 50% inhibitory concentration (IC50) result (in assay [1] (hek293); in assay [2] (cho-k1); in assay [3]; in assay [4]; against Histamine H2 receptor (cho-k1); in assay [5]) was “Not Active” in each case. The Ki entry in assay [3] and in assay [4] was “Not Active” each time.
Consider `CCN1CCN(C(=O)N[C@@H](C(=O)N[C@@H]2C(=O)N3[C@@H]2SC(C)(C)[C@@H]3C(=O)O)c2ccccc2)C(=O)C1=O` [PIPERACILLIN], for which the concentration for half-maximal inhibition (IC50) entry (in assay [1] (hek293); in assay [2] (cho-k1); in assay [3]; in assay [4]; against Histamine H2 receptor (cho-k1); in assay [5]) was “Not Active” in each case. The inhibitory constant (Ki) result in assay [3] and in assay [4] was “Not Active” each time.
For the molecule `NC(=O)NC(=O)Cc1ccccc1` [PHENACEMIDE], the IC50 entry (in assay [1] (hek293); in assay [2] (cho-k1); in assay [3]; in assay [4]; at Histamine H2 receptor (cho-k1); in assay [5]) was “Not Active” each time. Also, the inhibition constant Ki result in assay [3] and in assay [4] was “Not Active” throughout.
Take `CC(CN1c2ccccc2Sc2ccccc21)N(C)C` (stereo not drawn) [PROMETHAZINE]: the IC50 in assay [1] (read-out: IC50) was 183 nM; in assay [2] (cho-k1), “Not Active”; in assay [3], “Not Active”; in assay [4] it was “Not Active”; on Histamine H2 receptor (read-out: IC50) it was 1160 nM; in assay [5] it was “Not Active”. In addition, the inhibitory constant (Ki) in assay [1] was 90 nM; in assay [3], “Not Active”; in assay [4], “Not Active”; at Histamine H2 receptor, 1150 nM.
As for `Nc1ccc(Cc2ccc(N)cc2)cc1`, the IC50 result (in assay [1] (hek293); in assay [2] (cho-k1); in assay [3]; in assay [4]; on Histamine H2 receptor (cho-k1); in assay [5]) was “Not Active” each time. The Ki result in assay [3] and in assay [4] was “Not Active” each time.
Take `CC[C@H]1OC(=O)[C@H](C)[C@@H](O[C@H]2C[C@@](C)(OC)[C@@H](O)[C@H](C)O2)[C@H](C)[C@@H](O[C@@H]2O[C@H](C)C[C@H](N(C)C)[C@H]2O)[C@](C)(O)C[C@@H](C)C(=O)[C@H](C)[C@@H](O)[C@]1(C)O` [ERYTHROMYCIN]: the 50% inhibitory concentration (IC50) entry (in assay [1] (hek293); in assay [2] (cho-k1); in assay [3]; in assay [4]; against Histamine H2 receptor (cho-k1); in assay [5]) was “Not Active” throughout. In addition, the Ki entry in assay [3] and in assay [4] was “Not Active” in each case.
Consider `C[N+](C)(C)CCOP(=O)([O-])OC[C@H](O)CO`, for which the IC50 entry (in assay [1] (hek293); in assay [2] (cho-k1); in assay [3]; in assay [4]; against Histamine H2 receptor (cho-k1); in assay [5]) was “Not Active” each time. In addition, the Ki result in assay [3] and in assay [4] was “Not Active” throughout.
With `Clc1cc(Cl)c(OCC#CI)cc1Cl` [HALOPROGIN], the IC50 result in assay [1] (hek293) was “Not Active”; in assay [2] (read-out: IC50), 1970 nM; in assay [3], “Not Active”; in assay [4], “Not Active”; at Histamine H2 receptor (cho-k1), “Not Active”; in assay [5], “Not Active”. Also, the results for the inhibition constant Ki in assay [2], in assay [3] and in assay [4] were 1560 nM, “Not Active” and “Not Active”, respectively.
For `C[N+](C)(C)CCOC(N)=O.[Cl-]` [CARBACHOL], the IC50 entry (in assay [1] (hek293); in assay [2] (cho-k1); in assay [3]; in assay [4]; against Histamine H2 receptor (cho-k1); in assay [5]) was “Not Active” in each case. Besides, the inhibitory constant (Ki) result in assay [3] and in assay [4] was “Not Active” in each case.
On to `CCN(CCO)CCCC(C)Nc1ccnc2cc(Cl)ccc12` (stereo not drawn) [HYDROXYCHLOROQUINE], for which the IC50 in assay [1] (read-out: IC50) was 4770 nM; in assay [2] (cho-k1), “Not Active”; in assay [3], “Not Active”; in assay [4] it was “Not Active”; at Histamine H2 receptor (cho-k1), “Not Active”; in assay [5], “Not Active”. The values for the Ki in assay [1], in assay [3] and in assay [4] were 2350 nM, “Not Active” and “Not Active”, respectively.
As to `O=C1c2ccccc2C(=O)C1c1ccccc1` [PHENINDIONE], the IC50 result (in assay [1] (hek293); in assay [2] (cho-k1); in assay [3]; in assay [4]; at Histamine H2 receptor (cho-k1); in assay [5]) was “Not Active” each time. Moreover, the Ki result in assay [3] and in assay [4] was “Not Active” each time.
In the case of `NC(N)=Nc1nc(CSCCC(N)=NS(N)(=O)=O)cs1` [FAMOTIDINE], the 50% inhibitory concentration (IC50) entry was “Not Active” in assay [1] (hek293); “Not Active” in assay [2] (cho-k1); “Not Active” in assay [3]; “Not Active” in assay [4]; 42 nM on Histamine H2 receptor (read-out: IC50); “Not Active” in assay [5]. Besides, the inhibition constant Ki entry in assay [3] is “Not Active”; in assay [4], “Not Active”; at Histamine H2 receptor it was 41 nM.
Take `Cc1ccnc2c1NC(=O)c1cccnc1N2C1CC1` [NEVIRAPINE]: the IC50 entry (in assay [1] (hek293); in assay [2] (cho-k1); in assay [3]; in assay [4]; on Histamine H2 receptor (cho-k1); in assay [5]) was “Not Active” throughout. Besides, the inhibitory constant (Ki) entry in assay [3] and in assay [4] was “Not Active” in each case.
For `CO[C@H]1O[C@@H]2O[C@@]3(C)CC[C@H]4[C@H](C)CC[C@@H]([C@H]1C)[C@@]24OO3`, the half-inhibitory concentration (IC50) entry (in assay [1] (hek293); in assay [2] (cho-k1); in assay [3]; in assay [4]; on Histamine H2 receptor (cho-k1); in assay [5]) was “Not Active” in each case. The inhibition constant (Ki) result in assay [3] and in assay [4] was “Not Active” in each case.
As for `CN(CCOc1ccc(C[C@H](Nc2ccccc2C(=O)c2ccccc2)C(=O)O)cc1)c1ccccn1`, the 50% inhibitory concentration (IC50) entry in assay [1] (hek293) is “Not Active”; in assay [2] (read-out: IC50), 13600 nM; in assay [3] it was “Not Active”; in assay [4], “Not Active”; on Histamine H2 receptor (cho-k1), “Not Active”; in assay [5] it was “Not Active”. Also, the Ki in assay [2] is 10800 nM; in assay [3] it was “Not Active”; in assay [4], “Not Active”.
As to `c1ccc2sc(SSc3nc4ccccc4s3)nc2c1` [BENZOTHIAZYL DISULFIDE], the IC50 entry was “Not Active” in assay [1] (hek293); 245 nM in assay [2] (read-out: IC50); “Not Active” in assay [3]; “Not Active” in assay [4]; “Not Active” at Histamine H2 receptor (cho-k1); “Not Active” in assay [5]. The results for the Ki in assay [2], in assay [3] and in assay [4] were 194 nM, “Not Active” and “Not Active”, respectively.
With `NS(=O)(=O)c1cc(C(=O)O)c(NCc2ccco2)cc1Cl` [FUROSEMIDE], the IC50 result (in assay [1] (hek293); in assay [2] (cho-k1); in assay [3]; in assay [4]; on Histamine H2 receptor (cho-k1); in assay [5]) was “Not Active” throughout. The Ki entry in assay [3] and in assay [4] was “Not Active” each time.

One may read the IC50 as the concentration at which inhibition is half-maximal. In general, Ki refers to the dissociation constant of the complex between target and ligand, obtained from inhibition or displacement.
